Measurements published in patent US9642860B2, “Combinations of corroles and statins” (Technion Research & Development Foundation Limited, priority 2011, dated 2017).

Columns and labels:
[1] = target: T1, HMG-CoA reductase (HMGCR) (Homo sapiens, UniProt P04035); assay: HMG-CoA reductase-catalyzed reaction inhibition (CoA byproduct by HPLC); assay type: biochemical; settings: read-out: Inhibition Percent
T1 sequence (P04035 426-888 limits assumed): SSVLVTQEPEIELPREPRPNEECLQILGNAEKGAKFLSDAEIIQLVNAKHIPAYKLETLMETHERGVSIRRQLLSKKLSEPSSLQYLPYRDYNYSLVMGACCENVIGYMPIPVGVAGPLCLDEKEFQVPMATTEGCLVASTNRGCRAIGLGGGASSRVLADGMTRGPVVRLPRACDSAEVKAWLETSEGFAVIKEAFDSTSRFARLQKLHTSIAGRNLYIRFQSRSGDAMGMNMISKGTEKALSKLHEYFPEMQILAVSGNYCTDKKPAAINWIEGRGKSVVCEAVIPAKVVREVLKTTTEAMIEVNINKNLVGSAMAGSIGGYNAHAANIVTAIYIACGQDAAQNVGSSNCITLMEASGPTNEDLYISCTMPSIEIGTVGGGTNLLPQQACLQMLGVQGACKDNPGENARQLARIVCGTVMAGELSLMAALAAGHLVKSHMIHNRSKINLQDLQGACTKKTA
Method: The effects of 1-Fe and statins fluvastatin and pravastatin alone and in combination on mevalonic acid production were tested using the following in vitro method.
Substrates of the HMGCR catalyzed reaction, NADPH (400 μM] and HMGCR (200 μM) were mixed in activity buffer comprising 100 mM sodium phosphate buffer, 1 mM ethylenediaminetetraacetic acid (EDTA), 10 mM dithiothreitol, 2% dimethyl sulfoxide, and 1 mM magnesium sulphate, the mixture having a pH of 6.8. 1-Fe, PS, or FS (alone or as a corrole statin combination) were added to the substrate mixture at various concentrations, followed by addition of HMGCR (0.48 μM). Reactions were then incubated at 37° C. for 15 minutes, followed by injection of 80 μl (microliter) to a reverse phase GraceSmart RP18 high performance liquid chromatography column (HPLC). […] As mevalonate concentration is difficult to identify in reaction mixture because it has no absorbance in the UV range, the yield of each reaction was calculated from the amount of CoA byproduct formed in the reaction after subtracting the baseline amount of CoA present as an impurity in the commercial HMG-CoA determined by injecting the substrate mixture alone. The inhibition percentage was calculated from the yield of each reaction relative to the yield of the enzymatic reaction without the addition of inhibitor.

J774.A1 macrophages = assay: Cholesterol biosynthesis model: acetate incorporation into cholesterol in macrophages; assay type: cell-based, Murine; settings: 24 h incubation
From the text: Accumulation of cholesterol within arterial macrophages is a step in the development of atherosclerosis (M. Aviram 2004). Statins can lower the levels of cholesterol biosynthesis in arterial macrophages. The cholesterol biosynthesis model which was employed determined the effect of various agents (pravastatin alone, fluvastatin alone, 1-Fe alone in various concentrations, 1-Fe in combination with pravastatin and 1-Fe in combination with fluvastatin) on reduction of cholesterol biosynthesis in macrophages.
Murine J774.A1 macrophages were cultured in DMEM (Dulbecco's Modified Eagle Medium) containing 5% FCS (fetal calf serum) in a humidified incubator. […] The effect of different concentrations of 1-Fe on cholesterol biosynthesis from acetate and on 1-Fe cellular uptake were determined by incubating J774.A1 macrophages for 24 h (hours) with 0, 5, 20 or 50 μM (micromolar) of 1-Fe. Intracellular corrole concentrations were then determined by a chemiluminescent method, and cholesterol biosynthesis was assayed by measuring acetate incorporation into cholesterol. […] Unesterified cholesterol spots were visualized by iodine vapor (using appropriate standard), scraped into scintillation vials and counted in a β-counter. 0.1 M (molar) NaOH (sodium hydroxide) was added to the remains of the cells, and cellular proteins were measured the following day by the Lowry method. […]

[2] = high dose 80 mg, over five years, compared to moderate dose statins; cited from earlier work

CC(C)n1c(/C=C/C(O)CC(O)CC(=O)O)c(-c2ccc(F)cc2)c2ccccc21 (centres unmarked) [FS, fluvastatin]
inhibition at 1 µM ([1]; FS 1 micromolar alone): 9%
reduction of macrophage biosynthesis of cholesterol (J774.A1 macrophages; 20 μM FS alone): 25%

CC[C@H](C)C(=O)O[C@H]1C[C@H](O)C=C2C=C[C@H](C)[C@H](CC[C@@H](O)C[C@@H](O)CC(=O)O)[C@H]21 [PS, pravastatin]
inhibition at 5 µM ([1]; PS 5 micromolar alone): 17%
reduction of macrophage biosynthesis of cholesterol (J774.A1 macrophages; 200 μM PS alone): 10%

CC(C)c1c(C(=O)Nc2ccccc2)c(-c2ccccc2)c(-c2ccc(F)cc2)n1CC[C@@H](O)C[C@@H](O)CC(=O)O [atorvastatin]
increase in the chance of developing Type 2 diabetes [2]: 12%
